For data set [1], the system named is AD-293 cells. Nature of the data set: Cytotoxicity (MTT) in AD-293 cells. The following applies: treated for 24 h. Format: cell-based.
The subject of data set [2] is TNF-α/NF-κB signaling pathway. The data set is described as follows: TNF-α/NF-κB luciferase reporter assay in AD-293 cells. The class given is cell-based. Conditions: AD-293 reporter cells; 50 ng mL−1 TNF-α; treated for 4 h. The source says: (§1) We utilized luciferase reporters bearing the promoter regions of TNF-α/NF-κB, TLR4/NF-κB, and IL-6/STAT3 ([ref. 25]) to examine the activities of the antibacterial active andrographolide analogs in the regulation of signaling pathways that govern inflammatory response (Table 2). […] Like their similarity in inhibitory activity against E. faecalis, E. coli and S. aureus (Table 1), 3-keto-19-alcohol compound 9b1 suppresses three signaling pathways in the same fashion as 6b17 (Table 2). […] Cells from the AD-293 cell line, a derivative of the HEK293 cell line with improved adherence and plaque formation properties, were purchased from Stratagene (La Jolla, CA, USA). The protocols were adopted and modified from our previous report.[25] All compounds were dissolved in DMSO at 10 mM as a stock solution. The final concentration of DMSO was 0.1% in the culture medium. AD-293 cells bearing luciferase reporters with promoter regions of IL-6/STAT3 and TNF-α/NF-κB in pGL4.20 vector (Promega) were maintained in DMEM high glucose medium supplemented with 10% FBS and 1% penicillin streptomycin in the presence of 1 μg mL^−1 puromycin. AD-293 cells overexpressing TLR4 and stably transfected with NF-κB reporter were maintained in DMEM high glucose medium in the presence of 1 μg mL^−1 puromycin and 10 μg mL^−1 blasticidin. All cells were maintained in a humidified incubator at 37 °C in 95% air and 5% CO2. Reporter cells were treated with 50 ng mL^−1 TNF-α to stimulate the NF-κB signaling pathway, 1 μg mL^−1 LPS to stimulate the TLR4/NF-κB signaling pathway, and 2.5 μg mL^−1 IL-6 to stimulate the IL-6/STAT3 signaling pathway. The medium was removed at the end of the treatment, cell extracts were prepared, and the luciferase activity was measured using a Luciferase assay kit (Promega) according to the manufacturer's instructions. EC50 was defined as the concentration of drug that inhibited stimulator-triggered luciferase reporter activation by 50% after continuous drug exposure for 4 (TNF-α/NF-κB) or 16 (IL-6/STAT3 and TLR4/NF-κB) hours. Each concentration was repeated 3 times independently.
For orientation: A reporter such as luciferase makes a cellular process visible.

For data set [3], the system named is TLR4/NF-κB signaling pathway. Nature of the data set: TLR4/NF-κB luciferase reporter assay in AD-293 cells. Format: cell-based. The following applies: AD-293 reporter cells; 1 μg mL−1 LPS; treated for 16 h.
Text: as §1

The test system of a further data set is S. aureus. The data set is described as follows: Bacteriostatic screening (growth, OD630) against S. aureus. The class given is cell-based. Conditions: at 250 μM of the tested compound. In outline: (§2)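 Overnight (12 h, 37 °C) LB cultures of ATCC strains were diluted 1000-fold and exposed to graded compound concentrations at 1% final DMSO, following a modified NCCLS protocol. Ciprofloxacin was the reference; runs were in triplicate, with cell-free blanks. Growth was read as OD630.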

The test system of another data set is E. coli. Nature of the data set: Bacteriostatic screening (growth, OD630) against E. coli. The class given is cell-based. Conditions: at 250 μM of the tested compound. In short, it runs like this: as §2
The subject of data set [4] is IL-6/STAT3 signaling pathway. Nature of the data set: IL-6/STAT3 luciferase reporter assay in AD-293 cells. Format: cell-based. Conditions: AD-293 reporter cells; 2.5 μg mL−1 IL-6; treated for 16 h.
Text: as §1

The next data set deals with E. faecalis. Nature of the data set: Bacteriostatic screening (growth, OD630) against E. faecalis. The following applies: 24 h, IC50 generated when inhibition at 250 μM was higher than 80%. The class given is cell-based. In short, it runs like this:
as §2

For data set [5], the system named is IL-6/STAT3 signaling pathway. More on the design: method as in PMID 28680097. Conditions: AD-293 reporter cells; treated for 16 h; cited from earlier work.
Data set [6] relates to AD-293 cells. Details: method as in PMID 28680097. The following applies: treated for 24 h; cited from earlier work.
Data set [7] concerns TNF-α/NF-κB signaling pathway. Details: method as in PMID 28680097. The following applies: AD-293 reporter cells; treated for 4 h; cited from earlier work.
Data set [8] has as its system TLR4/NF-κB signaling pathway. More on the design: method as in PMID 28680097. Conditions: AD-293 reporter cells; treated for 16 h; cited from earlier work.

Where two headings read alike, the source gives them in different places.

In general, CC50 refers to the concentration that lowers cell viability or growth by half. Broadly, the EC50 is the concentration at which the effect is half-maximal. Broadly, the IC50 is the concentration that gives 50% inhibition. A higher IC50 goes with a need for much substance.

As to `C=C1CCC2C3(C)COC(C)(C)OC3CCC2(C)C1CC=C1C(=O)OCC1Oc1cccc2cccnc12` (stereo not drawn) [5b17, (14β)-(Quinolyl-8′-oxy)-3,19-acetonylidene andrographolide], the CC50 in the data set on AD-293 cells [1] is > 10 µM. Besides, the values for the EC50 in data set [2], in [3] and in [4] were 2.45 ± 0.49 µM, 2.85 ± 0.07 µM and 6.35 ± 0.77 µM, respectively. The “inhibition rate (%) SA” value in the data set with S. aureus was “(27) %”. Moreover, the “inhibition rate (%) EC” value in the data set with E. coli was “(47) %”. The IC50 with E. faecalis amounted to 19.3 ± 2.3 µM.

Consider `C=C1CCC2C(C)(CO)C(O)CCC2(C)C1CC=C1C(=O)OCC1Oc1cccc2cccnc12` (stereo not drawn) [6a17, (14α)-(Quinolyl-8′-oxy)andrographolide], for which the CC50 in the data set with AD-293 cells [1] was > 10 µM. For the same compound, the values for the EC50 in data set [2], in [3] and in data set [4] were > 10 µM, > 10 µM and 5.62 ± 0.13 µM, respectively. Also, the “inhibition rate (%) SA” value in the data set with S. aureus is listed as “(66) %”. Moreover, the “inhibition rate (%) EC” value with E. coli was “(70) %”. Half-maximal inhibition in the data set with E. faecalis (IC50) required 16.3 ± 2.1 µM.

For `C=C1CCC2C(C)(CO)C(O)CCC2(C)C1CC=C1C(=O)OCC1Oc1ccc([N+](=O)[O-])cc1OC` (stereo not drawn) [6b3, (14β)-(2′-Methoxy-4′-nitro)phenoxy-andrographolide], the 50% effective concentration (EC50) was > 10 µM in data set [5], 8.97 ± 1.03 µM in data set [7] and 3.49 ± 0.34 µM in [8]. Besides, in the data set on S. aureus (250 µM), the “inhibition rate (%) SA” value is given as “(44) %”. Besides, the CC50 in the data set with AD-293 cells [6] was > 10 µM. The same compound gave an IC50 in the data set with E. faecalis of 140 ± 11.9 µM.

With “(14α)-(Quinolyl-8′-oxy)-3,19-acetonylidene andrographolide [5a17]”, in the data set on AD-293 cells [1], the CC50 was > 10 µM. Further, the concentration giving a half-maximal response (EC50) is > 10 µM in [2], > 10 µM in data set [3] and 4.71 ± 0.17 µM in [4]. Besides, the “inhibition rate (%) SA” value with S. aureus is listed as “(35) %”. For the same compound, in the data set on E. coli, the “inhibition rate (%) EC” value was “(44) %”. This compound yielded an IC50 in the data set with E. faecalis of 10.4 ± 2.5 µM.

The record behind these values is publication PMC9078697, “Discovery and preliminary SAR of 14-aryloxy-andrographolide derivatives as antibacterial agents with immunosuppressant activity” (RSC Advances, 2018).
